Series [1] has as its target Focal adhesion kinase 1 (Homo sapiens, UniProt Q05397). In words: Inhibition of FAK (unknown origin) incubated for 50 mins in presence of substrate/ATP by HTRF assay. (TR-FRET usually uses a lanthanide donor and a delayed reading to cut background.)
Series [2] in a line: Stability in human plasma assessed as half life at 2 uM incubated for 120 mins by LC-MS/MS analysis. The series is classed as ADME, cell-free.
Series [3] has as its target Protein cereblon/Focal adhesion kinase 1 (Homo sapiens) (UniProt Q05397+Q96SW2). In words: PROTAC activity at CRBN/FAK in human A549 cells assessed as protein degradation at 10 nM incubated for 12 hrs by Western blot analysis relative to control. The series is classed as cell-based. For orientation: Immunoblotting shows a protein as a band on a membrane.
The target of series [4] is T1, Epidermal growth factor receptor (Homo sapiens, UniProt P00533). Kind of series: Inhibition of wild-type EGFR in human A549 cells. The series is classed as cell-based.
T1 sequence (P00533 whole entry): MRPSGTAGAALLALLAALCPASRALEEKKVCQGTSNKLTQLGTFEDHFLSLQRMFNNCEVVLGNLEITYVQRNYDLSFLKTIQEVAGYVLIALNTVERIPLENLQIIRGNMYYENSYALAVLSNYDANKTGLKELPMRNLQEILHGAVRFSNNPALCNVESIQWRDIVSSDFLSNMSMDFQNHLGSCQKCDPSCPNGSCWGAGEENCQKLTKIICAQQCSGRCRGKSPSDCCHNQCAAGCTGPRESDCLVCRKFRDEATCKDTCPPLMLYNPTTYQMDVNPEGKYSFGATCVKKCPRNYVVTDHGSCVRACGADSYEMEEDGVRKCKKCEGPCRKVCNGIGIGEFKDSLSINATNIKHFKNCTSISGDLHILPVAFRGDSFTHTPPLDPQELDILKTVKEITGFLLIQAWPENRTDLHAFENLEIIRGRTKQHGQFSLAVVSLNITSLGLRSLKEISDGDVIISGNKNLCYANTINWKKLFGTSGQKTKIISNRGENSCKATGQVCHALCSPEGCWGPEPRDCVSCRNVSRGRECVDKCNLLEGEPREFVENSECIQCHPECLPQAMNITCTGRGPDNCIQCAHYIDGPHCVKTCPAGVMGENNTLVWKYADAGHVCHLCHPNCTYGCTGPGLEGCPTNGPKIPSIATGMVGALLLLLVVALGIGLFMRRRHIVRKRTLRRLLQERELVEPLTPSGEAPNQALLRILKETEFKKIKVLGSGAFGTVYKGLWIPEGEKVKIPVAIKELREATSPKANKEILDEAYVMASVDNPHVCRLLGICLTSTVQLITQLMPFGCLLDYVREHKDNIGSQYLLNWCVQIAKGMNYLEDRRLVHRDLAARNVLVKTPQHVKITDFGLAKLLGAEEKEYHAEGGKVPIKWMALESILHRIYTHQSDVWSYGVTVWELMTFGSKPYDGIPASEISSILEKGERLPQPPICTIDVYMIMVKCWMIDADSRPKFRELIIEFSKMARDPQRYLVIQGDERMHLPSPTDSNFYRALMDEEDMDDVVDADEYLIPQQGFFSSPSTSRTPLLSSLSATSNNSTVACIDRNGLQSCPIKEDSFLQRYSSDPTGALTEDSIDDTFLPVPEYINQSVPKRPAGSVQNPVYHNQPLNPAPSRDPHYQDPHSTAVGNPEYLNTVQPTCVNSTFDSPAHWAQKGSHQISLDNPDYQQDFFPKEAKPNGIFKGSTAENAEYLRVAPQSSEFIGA
Series [5] is described as follows: Inhibition of EGFR del19 mutant in human HCC827 cells. The series is classed as cell-based.
The test system of series [6] is von Hippel-Lindau disease tumor suppressor/Epidermal growth factor receptor (Homo sapiens), P00533+P40337 [UNDEFINED MUTATION]. Kind of series: PROTAC activity at VHL/EGFR del19 mutant in human HCC827 cells assessed as protein degradation relative to control. In kind it is cell-based.
Series [7] concerns the target T1, Epidermal growth factor receptor. Kind of series: Inhibition of wild-type EGFR in human A-431 cells. In kind it is cell-based.
Series [8] in a line: Inhibition of EGFR L858R/790M mutant in human NCI-H1975 cells. The series is classed as cell-based.
Series [9] addresses von Hippel-Lindau disease tumor suppressor/Epidermal growth factor receptor (Homo sapiens, UniProt P00533+P40337). In words: PROTAC activity at VHL/EGFR del19 mutant in human HCC827 cells assessed as protein degradation. The series is classed as cell-based.
Series [10] addresses Cyclin-dependent kinase 9 (Homo sapiens, UniProt P50750). Kind of series: Induction of CDK9 degradation in human 22Rv1 cells. In kind it is cell-based.
Series [11] addresses Cyclin-T1 (Homo sapiens, UniProt O60563). Kind of series: Induction of Cyclin T1 degradation in human 22Rv1 cells. In kind it is cell-based.
Series [12] concerns CWR22R. Kind of series: Inhibition of cell growth in human 22Rv1 cells. In kind it is functional, cell-based.
For series [13], the target named is von Hippel-Lindau disease tumor suppressor/GTPase KRas (Homo sapiens, UniProt P01116+P40337, G12C). Kind of series: PROTAC activity at VHL/KRAS G12C mutant in human NCI-H2030 cells assessed as protein degradation incubated for 24 hrs by Western blot analysis. The series is classed as cell-based.
Sequence of von Hippel-Lindau disease tumor suppressor/GTPase KRas (P01116 whole entry G12C, stated change not applied): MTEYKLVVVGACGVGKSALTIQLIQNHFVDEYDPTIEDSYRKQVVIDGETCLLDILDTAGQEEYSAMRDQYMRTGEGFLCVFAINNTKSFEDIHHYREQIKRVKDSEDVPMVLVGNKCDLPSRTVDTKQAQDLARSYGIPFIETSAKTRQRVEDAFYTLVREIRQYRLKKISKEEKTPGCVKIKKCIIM
Sequence of von Hippel-Lindau disease tumor suppressor/GTPase KRas (P40337 whole entry, stated change not applied): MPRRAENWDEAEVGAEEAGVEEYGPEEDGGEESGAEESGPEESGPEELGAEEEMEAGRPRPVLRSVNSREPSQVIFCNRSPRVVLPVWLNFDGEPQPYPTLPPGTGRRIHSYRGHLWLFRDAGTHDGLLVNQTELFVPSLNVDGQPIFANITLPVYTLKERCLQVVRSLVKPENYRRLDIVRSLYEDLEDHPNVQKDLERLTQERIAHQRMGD
Series [14] addresses T2, Protein fem-1 homolog B/Bromodomain-containing protein 4 (Homo sapiens, UniProt O60885+Q9UK73). In words: PROTAC activity at FEM1B/BRD4 in HEK293T cells assessed as protein degradation relative to control. In kind it is cell-based.
Series [15] deals with Bromodomain-containing protein 4 (Homo sapiens, UniProt O60885). Kind of series: Inhibition of BRD4 in HEK293T cells. In kind it is cell-based.
Series [16] concerns the target T2, Protein fem-1 homolog B/Bromodomain-containing protein 4. Kind of series: PROTAC activity at FEM1B/BRD4 in HEK293T cells assessed as protein degradation. The series is classed as cell-based.
Series [17] addresses RAC-beta serine/threonine-protein kinase (Homo sapiens, UniProt P31751). In words: Inhibition of AKT2 (unknown origin).
For series [18], the target named is von Hippel-Lindau disease tumor suppressor/AKT (Homo sapiens, UniProt P31751+Q9Y243+P31749+P40337). In words: PROTAC activity at VHL/AKT in human SW620 cells assessed as protein degradation. In kind it is cell-based.
In series [19] the test system is SW-620. Kind of series: Inhibition of cell growth in human SW620 cells. In kind it is functional.
Series [20] addresses RAC-gamma serine/threonine-protein kinase (Homo sapiens, UniProt Q9Y243). In words: Inhibition of AKT3 (unknown origin).
The target in series [21] is RAC-alpha serine/threonine-protein kinase (Homo sapiens, UniProt P31749). Kind of series: Inhibition of AKT1 (unknown origin).
Sequence of RAC-alpha serine/threonine-protein kinase (P31749 whole entry): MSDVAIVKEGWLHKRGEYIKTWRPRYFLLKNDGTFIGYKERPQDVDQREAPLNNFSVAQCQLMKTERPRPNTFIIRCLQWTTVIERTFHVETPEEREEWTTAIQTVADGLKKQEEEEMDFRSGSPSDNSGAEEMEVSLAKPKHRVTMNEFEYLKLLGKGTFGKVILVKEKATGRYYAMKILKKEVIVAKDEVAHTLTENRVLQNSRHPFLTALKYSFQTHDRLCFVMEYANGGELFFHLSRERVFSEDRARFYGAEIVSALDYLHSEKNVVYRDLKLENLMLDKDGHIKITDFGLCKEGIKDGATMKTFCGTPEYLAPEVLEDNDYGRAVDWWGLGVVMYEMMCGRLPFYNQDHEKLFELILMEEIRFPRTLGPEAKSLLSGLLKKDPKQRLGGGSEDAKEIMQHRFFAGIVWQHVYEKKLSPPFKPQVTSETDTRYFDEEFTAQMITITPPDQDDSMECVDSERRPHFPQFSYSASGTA

pIC50: −log10 of the molar value.

T2 sequence (Q9UK73 whole entry, looked up, other chains not shown): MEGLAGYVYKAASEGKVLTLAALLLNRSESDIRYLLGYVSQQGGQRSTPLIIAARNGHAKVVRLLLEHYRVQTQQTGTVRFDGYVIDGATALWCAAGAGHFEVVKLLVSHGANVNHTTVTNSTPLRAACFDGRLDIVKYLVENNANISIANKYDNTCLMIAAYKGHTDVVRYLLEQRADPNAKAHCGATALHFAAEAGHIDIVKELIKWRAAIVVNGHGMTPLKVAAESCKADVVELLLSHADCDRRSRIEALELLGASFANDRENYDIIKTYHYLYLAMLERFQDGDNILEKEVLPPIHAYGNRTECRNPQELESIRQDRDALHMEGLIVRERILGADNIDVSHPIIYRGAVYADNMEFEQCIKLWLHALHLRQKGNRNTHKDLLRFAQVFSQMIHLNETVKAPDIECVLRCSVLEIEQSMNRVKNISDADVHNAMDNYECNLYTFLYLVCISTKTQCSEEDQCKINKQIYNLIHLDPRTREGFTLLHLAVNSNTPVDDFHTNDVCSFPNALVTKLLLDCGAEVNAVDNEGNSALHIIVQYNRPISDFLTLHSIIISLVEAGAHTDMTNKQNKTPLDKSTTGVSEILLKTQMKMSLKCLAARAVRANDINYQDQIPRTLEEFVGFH
Sequence of Focal adhesion kinase 1 (Q05397 whole entry): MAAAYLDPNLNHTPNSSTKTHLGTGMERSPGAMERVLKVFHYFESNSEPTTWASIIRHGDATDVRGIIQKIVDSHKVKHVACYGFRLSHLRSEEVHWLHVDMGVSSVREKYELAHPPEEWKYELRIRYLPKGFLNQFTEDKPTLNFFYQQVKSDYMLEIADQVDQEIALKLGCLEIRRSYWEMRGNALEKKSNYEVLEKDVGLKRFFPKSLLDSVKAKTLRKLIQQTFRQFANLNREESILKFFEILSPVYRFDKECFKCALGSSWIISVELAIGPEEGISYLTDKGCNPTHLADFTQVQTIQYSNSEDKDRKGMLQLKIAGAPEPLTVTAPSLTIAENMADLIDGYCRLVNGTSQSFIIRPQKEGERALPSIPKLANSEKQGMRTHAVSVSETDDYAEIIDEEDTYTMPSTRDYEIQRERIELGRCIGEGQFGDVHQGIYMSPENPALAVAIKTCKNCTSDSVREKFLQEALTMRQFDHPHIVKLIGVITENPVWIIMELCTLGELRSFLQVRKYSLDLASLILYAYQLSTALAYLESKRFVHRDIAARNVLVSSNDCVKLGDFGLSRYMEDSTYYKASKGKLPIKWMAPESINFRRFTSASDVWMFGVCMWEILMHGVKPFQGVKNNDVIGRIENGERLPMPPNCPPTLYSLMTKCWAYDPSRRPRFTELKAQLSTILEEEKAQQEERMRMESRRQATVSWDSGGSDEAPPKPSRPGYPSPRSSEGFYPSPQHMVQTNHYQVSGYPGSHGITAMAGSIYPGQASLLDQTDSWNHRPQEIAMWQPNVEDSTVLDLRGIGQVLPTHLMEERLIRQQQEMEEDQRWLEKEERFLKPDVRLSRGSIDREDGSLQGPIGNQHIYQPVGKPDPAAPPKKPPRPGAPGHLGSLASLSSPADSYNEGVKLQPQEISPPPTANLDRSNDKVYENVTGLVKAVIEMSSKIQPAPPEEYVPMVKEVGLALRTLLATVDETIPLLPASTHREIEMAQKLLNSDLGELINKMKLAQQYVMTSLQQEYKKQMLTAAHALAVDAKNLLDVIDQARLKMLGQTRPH
Sequence of RAC-gamma serine/threonine-protein kinase (Q9Y243 whole entry): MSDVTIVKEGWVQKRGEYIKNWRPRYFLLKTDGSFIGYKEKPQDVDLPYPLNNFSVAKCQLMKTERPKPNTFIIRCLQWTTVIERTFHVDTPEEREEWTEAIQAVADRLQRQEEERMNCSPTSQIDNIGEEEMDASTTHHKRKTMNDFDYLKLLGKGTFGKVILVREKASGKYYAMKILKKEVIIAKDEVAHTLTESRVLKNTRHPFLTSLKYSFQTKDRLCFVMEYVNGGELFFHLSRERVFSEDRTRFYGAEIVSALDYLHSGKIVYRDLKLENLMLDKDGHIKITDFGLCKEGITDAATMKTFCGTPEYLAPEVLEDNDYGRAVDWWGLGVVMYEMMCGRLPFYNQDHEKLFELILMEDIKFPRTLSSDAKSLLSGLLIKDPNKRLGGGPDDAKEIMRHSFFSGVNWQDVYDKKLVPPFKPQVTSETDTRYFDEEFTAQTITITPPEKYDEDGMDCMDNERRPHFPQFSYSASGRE
Sequence of Cyclin-dependent kinase 9 (P50750 whole entry): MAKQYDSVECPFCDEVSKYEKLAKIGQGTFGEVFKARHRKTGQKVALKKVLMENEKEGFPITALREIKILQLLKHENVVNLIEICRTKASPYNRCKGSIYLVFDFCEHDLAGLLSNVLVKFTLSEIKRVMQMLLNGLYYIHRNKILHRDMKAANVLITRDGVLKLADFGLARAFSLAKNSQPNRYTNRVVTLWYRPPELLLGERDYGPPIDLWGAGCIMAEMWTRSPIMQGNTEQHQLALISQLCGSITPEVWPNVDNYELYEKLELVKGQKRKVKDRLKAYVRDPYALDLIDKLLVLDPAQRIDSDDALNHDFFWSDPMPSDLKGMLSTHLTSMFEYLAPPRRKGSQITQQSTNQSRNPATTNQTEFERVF

Broadly, the pIC50 is the IC50 on a negative log10 scale, so that one unit is a factor of ten. The half-life is how long it takes for the measured level to halve. Take `CN(c1ncccc1CNc1nc(Nc2ccc(N3CCN(CCCCCCC(=O)NCCNc4cccc5c4C(=O)N(C4CCC(=O)NC4=O)C5=O)CC3)cc2)ncc1C(F)(F)F)S(C)(=O)=O` (stereo unspecified): the pIC50 in series [1] was 7.58. Further, the half-life at 2 µM in series [2] is above 3.25 h. Moreover, the Emax in series [3] is 85%.

For orientation: DC50 means the concentration giving 50% degradation. Turning to `Cc1ncsc1-c1ccc(CNC(=O)C2CC(O)CN2C(=O)C(NC(=O)CCCCCCCCCCn2cc(COc3cc4ncnc(Nc5ccc(F)c(Cl)c5)c4cc3NC(=O)/C=C/CN3CCCCC3)nn2)C(C)(C)C)cc1` (stereo unspecified), the pIC50 is below 4.70 in series [4], 8.22 in series [5], below 4.70 in series [7] and below 4.70 in series [8]. For the same compound, the Emax in [6] was determined as 91%. The DC50 in [9] was 3.57 nM.

In the case of `CC1CCC(C(C)C)C(OCC(=O)NCCS(=O)(=O)N2CCC(C(=O)Nc3ncc(SCc4ncc(C(C)(C)C)o4)s3)CC2)C1` (stereo unspecified), the DC50 was found to be 62 nM in series [10] and 589 nM in [11]. In series [12], this compound showed a pIC50 of 7.02.

As to `C=C(F)C(=O)N1CCN(c2nc(OC[C@@H]3CCCN3CCCOCCC(=O)N[C@H](C(=O)N3CC(O)C[C@H]3C(=O)NCc3ccc(-c4scnc4C)cc3)C(C)(C)C)nc3c2CCN(c2cccc4cccc(Cl)c24)C3)C[C@@H]1CC#N` (stereo partly specified), the DC50 in series [13] is 590 nM.

With `Cc1sc2c(c1C)C(c1ccc(Cl)cc1)=N[C@H](CC(=O)NCCCCCNC(=O)CN1CCOc3cc(N(CCC#N)C(=O)CCl)ccc31)c1nnc(C)n1-2`, in [14], the Emax was 94%. For the same compound, the pIC50 in series [15] was 5.85. The DC50 in series [16] is 250 nM.

In general, GI50 refers to the concentration at which growth is held to half of that of the control. Read a low GI50 as more potent growth inhibition. Regarding `Cc1ncsc1-c1ccc(C(C)NC(=O)C2CC(O)CN2C(=O)C(NC(=O)CCCCCCCCCCNC(=O)CCc2cccc(-c3ccc4nc(-c5cccnc5N)n(-c5ccc(C6(N)CCC6)cc5)c4n3)c2)C(C)(C)C)cc1` (stereo unspecified), the values for the pIC50 in series [17], in series [20] and in series [21] were 7.05, 6.26 and 6.10, respectively. Moreover, the DC50 in series [18] was determined as 23 nM. Growth in series [19] was halved (GI50) at 3100 nM.

Values taken from ChEMBL document CHEMBL5512614, “Annual review of PROTAC degraders as anticancer agents in 2022” (Eur J Med Chem, 2024).
